Experimental data taken from patent publication US11697648B2, “Fused pyrimidine pyridinone compounds as JAK inhibitors” (THERAVANCE BIOPHARMA R&D IP, LLC, priority 2019, dated 2023).

Assays:
JAK1 = JAK1 (Homo sapiens (Human), UniProt P23458); assay: Biochemical JAK1 kinase assay (LanthaScreen)
How it was run: (§1)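 GST-JAK + GFP-STAT1 peptide, HEPES pH 7.5/MgCl2/EGTA/Brij-35 buffer; cpd preincubation 1 h RT; ATP start, 1 h RT; stop with 10 mM EDTA + 2 nM Tb-anti-pSTAT1; TR-FRET 520/495. 4-parameter IC50 → pKi (Cheng-Prusoff).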

JAK2 = JAK2 (Homo sapiens (Human), UniProt O60674); assay: Biochemical JAK2 kinase assay (LanthaScreen)
Sequence of JAK2 (O60674 whole entry): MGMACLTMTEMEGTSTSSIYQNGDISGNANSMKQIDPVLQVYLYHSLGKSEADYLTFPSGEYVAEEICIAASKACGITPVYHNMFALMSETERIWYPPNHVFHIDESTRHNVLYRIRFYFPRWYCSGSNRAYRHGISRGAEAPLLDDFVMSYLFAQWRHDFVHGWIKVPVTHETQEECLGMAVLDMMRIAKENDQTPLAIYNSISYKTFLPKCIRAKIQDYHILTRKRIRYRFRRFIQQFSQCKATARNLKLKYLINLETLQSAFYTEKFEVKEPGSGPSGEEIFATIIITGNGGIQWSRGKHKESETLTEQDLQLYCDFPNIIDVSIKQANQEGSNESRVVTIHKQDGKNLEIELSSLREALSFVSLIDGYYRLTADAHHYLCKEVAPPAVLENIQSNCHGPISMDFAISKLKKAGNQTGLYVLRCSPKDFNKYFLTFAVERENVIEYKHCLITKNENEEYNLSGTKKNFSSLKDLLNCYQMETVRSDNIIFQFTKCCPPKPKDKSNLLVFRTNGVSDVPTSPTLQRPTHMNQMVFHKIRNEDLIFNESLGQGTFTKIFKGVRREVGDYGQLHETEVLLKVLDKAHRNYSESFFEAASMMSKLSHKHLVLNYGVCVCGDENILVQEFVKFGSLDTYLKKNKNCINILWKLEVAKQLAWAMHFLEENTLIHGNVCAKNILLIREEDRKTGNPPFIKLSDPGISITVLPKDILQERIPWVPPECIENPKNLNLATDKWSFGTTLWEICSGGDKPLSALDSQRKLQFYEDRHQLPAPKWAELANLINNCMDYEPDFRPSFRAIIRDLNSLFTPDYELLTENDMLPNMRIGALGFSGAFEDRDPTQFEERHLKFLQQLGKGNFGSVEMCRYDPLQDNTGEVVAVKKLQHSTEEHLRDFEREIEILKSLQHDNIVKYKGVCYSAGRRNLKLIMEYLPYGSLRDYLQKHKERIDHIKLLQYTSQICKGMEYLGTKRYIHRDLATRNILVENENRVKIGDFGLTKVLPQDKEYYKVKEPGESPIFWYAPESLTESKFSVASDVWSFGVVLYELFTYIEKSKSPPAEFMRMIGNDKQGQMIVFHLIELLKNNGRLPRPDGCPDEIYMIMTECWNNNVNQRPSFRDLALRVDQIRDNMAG
Method: (§2) Assay 1: Biochemical JAK and Tyk2 Kinase Assays
(§3) A panel of four LanthaScreen JAK biochemical assays (JAK1, 2, 3 and Tyk2) were carried in a common kinase reaction buffer (50 mM HEPES, pH 7.5, 0.01% Brij-35, 10 mM MgCl2, and 1 mM EGTA). Recombinant GST-tagged JAK enzymes and a GFP-tagged STAT1 peptide substrate were obtained from Life Technologies.
(§4) Serially or discretely diluted compounds were pre-incubated with each of the four JAK enzymes and the substrate in white 384-well microplates (Corning) at ambient temperature for 1 h. ATP was subsequently added to initiate the kinase reactions in 10 μL total volume, with 1% DMSO. […] Kinase reactions were allowed to proceed for 1 hour at ambient temperature before a 10 μL preparation of EDTA (10 mM final concentration) and Tb-anti-pSTAT1 (pTyr701) antibody (Life Technologies, 2 nM final concentration) in TR-FRET dilution buffer (Life Technologies) was added. The plates were allowed to incubate at ambient temperature for 1 h before being read on the EnVision reader (Perkin Elmer). Emission ratio signals (520 nm/495 nm) were recorded and utilized to calculate the percent inhibition values based on DMSO and background controls.
(§5) For dose-response analysis, percent inhibition data were plotted vs. compound concentrations, and IC50 values were determined from a 4-parameter robust fit model with the Prism software (GraphPad Software). Results were expressed as pIC50 (negative logarithm of IC50) and subsequently converted to pKi (negative logarithm of dissociation constant, Ki) using the Cheng-Prusoff equation.

Tyk2 = Tyk2 (Homo sapiens (Human), UniProt P29597); assay: Biochemical Tyk2 kinase assay (LanthaScreen)
Sequence of Tyk2 (P29597 whole entry): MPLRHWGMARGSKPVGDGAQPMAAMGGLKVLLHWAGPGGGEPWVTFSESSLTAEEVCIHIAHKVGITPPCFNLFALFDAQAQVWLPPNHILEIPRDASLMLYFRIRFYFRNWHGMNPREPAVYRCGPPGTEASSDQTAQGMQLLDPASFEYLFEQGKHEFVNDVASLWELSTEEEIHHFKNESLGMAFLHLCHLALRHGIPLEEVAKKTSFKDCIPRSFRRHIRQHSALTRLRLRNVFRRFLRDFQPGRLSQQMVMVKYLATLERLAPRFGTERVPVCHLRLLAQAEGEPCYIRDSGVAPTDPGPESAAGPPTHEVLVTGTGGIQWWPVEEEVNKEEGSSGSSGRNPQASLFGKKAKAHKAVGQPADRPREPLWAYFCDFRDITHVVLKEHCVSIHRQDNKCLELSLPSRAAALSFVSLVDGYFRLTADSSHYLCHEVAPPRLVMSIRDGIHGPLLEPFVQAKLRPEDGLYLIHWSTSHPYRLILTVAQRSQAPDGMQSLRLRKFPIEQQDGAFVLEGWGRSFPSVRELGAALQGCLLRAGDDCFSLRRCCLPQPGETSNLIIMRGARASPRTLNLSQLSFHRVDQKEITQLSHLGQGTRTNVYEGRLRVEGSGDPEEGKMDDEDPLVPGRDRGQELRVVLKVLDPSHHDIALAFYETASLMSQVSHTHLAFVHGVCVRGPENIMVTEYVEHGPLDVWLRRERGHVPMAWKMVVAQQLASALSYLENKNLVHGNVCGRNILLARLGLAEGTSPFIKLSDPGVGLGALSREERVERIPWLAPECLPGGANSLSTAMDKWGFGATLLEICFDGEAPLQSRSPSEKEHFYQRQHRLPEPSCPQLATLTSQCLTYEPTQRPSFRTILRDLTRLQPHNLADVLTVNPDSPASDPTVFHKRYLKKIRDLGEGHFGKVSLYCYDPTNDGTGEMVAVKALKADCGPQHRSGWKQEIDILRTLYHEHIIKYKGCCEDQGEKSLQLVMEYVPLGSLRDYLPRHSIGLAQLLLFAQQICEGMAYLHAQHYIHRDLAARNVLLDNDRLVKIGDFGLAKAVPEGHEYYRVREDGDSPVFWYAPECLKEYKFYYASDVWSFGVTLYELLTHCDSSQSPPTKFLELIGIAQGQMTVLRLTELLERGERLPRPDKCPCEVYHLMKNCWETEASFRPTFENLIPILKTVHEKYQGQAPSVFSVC
Method: as §2, §3, §4, §5

JAK3 = JAK3 (Homo sapiens (Human), UniProt P52333); assay: Biochemical JAK3 kinase assay (LanthaScreen); details: for JAK3 (pKi)-JAK1 (pKi): selectivity JAK3 over JAK1, difference of pKi
Sequence of JAK3 (P52333 whole entry): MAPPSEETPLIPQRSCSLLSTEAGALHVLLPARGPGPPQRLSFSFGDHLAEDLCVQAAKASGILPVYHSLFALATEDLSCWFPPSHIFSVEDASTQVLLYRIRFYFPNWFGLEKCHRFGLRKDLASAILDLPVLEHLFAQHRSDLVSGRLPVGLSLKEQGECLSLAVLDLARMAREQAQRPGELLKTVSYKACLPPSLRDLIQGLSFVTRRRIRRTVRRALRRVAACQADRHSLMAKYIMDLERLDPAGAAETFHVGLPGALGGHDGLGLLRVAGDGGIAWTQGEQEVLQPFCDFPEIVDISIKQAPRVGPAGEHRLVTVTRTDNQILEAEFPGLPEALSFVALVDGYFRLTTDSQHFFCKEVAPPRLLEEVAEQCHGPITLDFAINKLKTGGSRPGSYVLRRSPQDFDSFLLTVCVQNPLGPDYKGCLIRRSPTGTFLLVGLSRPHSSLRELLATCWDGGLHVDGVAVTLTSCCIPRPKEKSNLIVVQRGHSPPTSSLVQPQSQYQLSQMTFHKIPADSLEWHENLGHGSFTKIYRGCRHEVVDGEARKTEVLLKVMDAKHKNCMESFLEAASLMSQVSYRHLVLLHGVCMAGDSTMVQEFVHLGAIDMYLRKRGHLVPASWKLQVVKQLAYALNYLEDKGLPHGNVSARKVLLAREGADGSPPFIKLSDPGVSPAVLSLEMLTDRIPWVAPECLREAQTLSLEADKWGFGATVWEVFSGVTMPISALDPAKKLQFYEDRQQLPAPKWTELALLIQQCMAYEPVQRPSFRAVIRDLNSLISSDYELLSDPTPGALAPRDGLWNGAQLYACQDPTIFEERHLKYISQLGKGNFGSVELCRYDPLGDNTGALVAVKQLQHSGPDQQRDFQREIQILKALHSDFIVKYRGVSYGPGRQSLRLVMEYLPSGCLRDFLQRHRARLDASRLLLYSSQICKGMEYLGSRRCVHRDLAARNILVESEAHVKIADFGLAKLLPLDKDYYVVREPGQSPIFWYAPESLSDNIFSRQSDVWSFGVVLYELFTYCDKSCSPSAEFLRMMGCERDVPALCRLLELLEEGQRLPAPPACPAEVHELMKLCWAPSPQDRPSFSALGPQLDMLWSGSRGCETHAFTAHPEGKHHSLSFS
How it was run: as §1

[1] = test system: IL-2 stimulated STAT5 phosphorylation in Tall-1 human T cell line (JAK3); assay: Cellular JAK3 potency assay: inhibition of IL-2 stimulated pSTAT5 in Tall-1 T cells; assay type: cell-based; details: IL-2 stimulated pSTAT5, Tall-1 T cells
How it was run: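 Tall-1 cells, 45,000 per well, preincubated 1 hour with compound at 37 °C, then stimulated 30 minutes with IL-2 at 300 ng/ml final. pSTAT5 (Tyr694/699) in lysates quantified by AlphaLISA SureFire Ultra. pIC50 derived from inhibition curves, given as mean with SD.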

Sequence of JAK1 (P23458 whole entry): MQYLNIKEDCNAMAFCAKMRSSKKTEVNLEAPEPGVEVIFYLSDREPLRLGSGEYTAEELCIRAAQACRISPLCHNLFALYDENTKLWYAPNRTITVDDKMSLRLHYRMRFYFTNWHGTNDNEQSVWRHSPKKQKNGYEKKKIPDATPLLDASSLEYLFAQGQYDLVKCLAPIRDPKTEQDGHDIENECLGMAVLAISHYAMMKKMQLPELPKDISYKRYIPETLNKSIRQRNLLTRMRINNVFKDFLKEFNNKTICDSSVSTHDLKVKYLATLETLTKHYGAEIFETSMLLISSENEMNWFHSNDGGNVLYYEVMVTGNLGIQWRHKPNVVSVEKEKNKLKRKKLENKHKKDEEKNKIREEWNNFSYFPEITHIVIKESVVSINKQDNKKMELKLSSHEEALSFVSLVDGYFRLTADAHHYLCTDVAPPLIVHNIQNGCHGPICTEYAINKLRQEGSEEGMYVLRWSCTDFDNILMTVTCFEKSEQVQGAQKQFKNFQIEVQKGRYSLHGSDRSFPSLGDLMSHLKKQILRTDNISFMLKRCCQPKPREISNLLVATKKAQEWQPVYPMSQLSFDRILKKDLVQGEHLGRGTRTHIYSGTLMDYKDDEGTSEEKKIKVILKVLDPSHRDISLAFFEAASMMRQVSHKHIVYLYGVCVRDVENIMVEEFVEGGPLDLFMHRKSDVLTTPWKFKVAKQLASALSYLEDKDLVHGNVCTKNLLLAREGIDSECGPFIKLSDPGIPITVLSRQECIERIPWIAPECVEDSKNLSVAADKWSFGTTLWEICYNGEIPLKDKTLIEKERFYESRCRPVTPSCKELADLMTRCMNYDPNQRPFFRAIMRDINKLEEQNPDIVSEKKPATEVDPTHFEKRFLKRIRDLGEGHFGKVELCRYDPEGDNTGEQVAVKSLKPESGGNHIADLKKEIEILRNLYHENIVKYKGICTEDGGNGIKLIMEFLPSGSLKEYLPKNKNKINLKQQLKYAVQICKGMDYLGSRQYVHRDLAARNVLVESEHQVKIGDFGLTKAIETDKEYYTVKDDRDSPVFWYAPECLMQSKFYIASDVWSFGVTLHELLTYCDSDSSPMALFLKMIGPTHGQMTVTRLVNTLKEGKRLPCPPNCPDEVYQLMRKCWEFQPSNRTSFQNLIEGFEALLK

SMILES	JAK 1 (pKi) (JAK1)	JAK 2 (pKi) (JAK2)	Tyk 2 (pKi) (Tyk2)	JAK 3 (pKi) (JAK3)	JAK3 (pKi)-JAK1 (pKi) (JAK3)	Tall-1 (pIC50) [1]
C=CC(=O)N1CC(CCn2c(=O)ccc3cnc(Nc4ccc(CN5CCN(C)CC5)cc4)nc32)C1 [Example 46]	E (E represents a pKi value of 7 or below (Ki of 100 nM or above))	E (E represents a pKi value of 7 or below (Ki of 100 nM or above))	E (E represents a pKi value of 7 or below (Ki of 100 nM or above))	B (B represents pKi value between 9 and 10 (Ki between 1 nM and 0.1 nM))	A (A represents a value of 3 or above)	B (B represents a pC50 value between 6.7 (included) and 7.5 (IC50 between 200 nM and 32 nM))
C=CC(=O)N1CC(CCn2c(=O)ccc3cnc(Nc4ccc(N5CCN(C)CC5)c(F)c4)nc32)C1 [Example 48]	E (E represents a pKi value of 7 or below (Ki of 100 nM or above))	E (E represents a pKi value of 7 or below (Ki of 100 nM or above))	E (E represents a pKi value of 7 or below (Ki of 100 nM or above))	B (B represents pKi value between 9 and 10 (Ki between 1 nM and 0.1 nM))	A (A represents a value of 3 or above)	B (B represents a pC50 value between 6.7 (included) and 7.5 (IC50 between 200 nM and 32 nM))
C=CC(=O)N1CCN(CCn2c(=O)ccc3cnc(Nc4ccc(N5CCN(C)CC5)c(C)c4)nc32)CC1 [Example 49]	E (E represents a pKi value of 7 or below (Ki of 100 nM or above))	E (E represents a pKi value of 7 or below (Ki of 100 nM or above))	E (E represents a pKi value of 7 or below (Ki of 100 nM or above))	B (B represents pKi value between 9 and 10 (Ki between 1 nM and 0.1 nM))	A (A represents a value of 3 or above)	B (B represents a pC50 value between 6.7 (included) and 7.5 (IC50 between 200 nM and 32 nM))
C=CC(=O)N1CC(CCn2c(=O)ccc3cnc(Nc4ccc(N5CCSCC5)c(F)c4)nc32)C1 [Example 53]	E (E represents a pKi value of 7 or below (Ki of 100 nM or above))	E (E represents a pKi value of 7 or below (Ki of 100 nM or above))	E (E represents a pKi value of 7 or below (Ki of 100 nM or above))	B (B represents pKi value between 9 and 10 (Ki between 1 nM and 0.1 nM))	A (A represents a value of 3 or above)	B (B represents a pC50 value between 6.7 (included) and 7.5 (IC50 between 200 nM and 32 nM))
C=CC(=O)N1CC(CCn2c(=O)ccc3cnc(Nc4cnn(CCOCC)c4)nc32)C1 [Example 56]	E (E represents a pKi value of 7 or below (Ki of 100 nM or above))	E (E represents a pKi value of 7 or below (Ki of 100 nM or above))	E (E represents a pKi value of 7 or below (Ki of 100 nM or above))	B (B represents pKi value between 9 and 10 (Ki between 1 nM and 0.1 nM))	A (A represents a value of 3 or above)	C (C represents a pIC50 value between 6 and 6.7 (IC50 between 1 μM and 200 nM))
C=CC(=O)N1CC(CCn2c(=O)ccc3cnc(Nc4cnn(CC(C)(C)O)c4)nc32)C1 [Example 57]	E (E represents a pKi value of 7 or below (Ki of 100 nM or above))	E (E represents a pKi value of 7 or below (Ki of 100 nM or above))	E (E represents a pKi value of 7 or below (Ki of 100 nM or above))	B (B represents pKi value between 9 and 10 (Ki between 1 nM and 0.1 nM))	A (A represents a value of 3 or above)	C (C represents a pIC50 value between 6 and 6.7 (IC50 between 1 μM and 200 nM))
C=CC(=O)N1CC(CCn2c(=O)ccc3cnc(Nc4cnn(C(C)(C)COC)c4)nc32)C1 [Example 58]	E (E represents a pKi value of 7 or below (Ki of 100 nM or above))	E (E represents a pKi value of 7 or below (Ki of 100 nM or above))	E (E represents a pKi value of 7 or below (Ki of 100 nM or above))	B (B represents pKi value between 9 and 10 (Ki between 1 nM and 0.1 nM))	A (A represents a value of 3 or above)	B (B represents a pC50 value between 6.7 (included) and 7.5 (IC50 between 200 nM and 32 nM))
C=CC(=O)N1CC(CCn2c(=O)ccc3cnc(Nc4ccc5[nH]c(=O)oc5c4)nc32)C1 [Example 59]	E (E represents a pKi value of 7 or below (Ki of 100 nM or above))	E (E represents a pKi value of 7 or below (Ki of 100 nM or above))	E (E represents a pKi value of 7 or below (Ki of 100 nM or above))	B (B represents pKi value between 9 and 10 (Ki between 1 nM and 0.1 nM))	A (A represents a value of 3 or above)	C (C represents a pIC50 value between 6 and 6.7 (IC50 between 1 μM and 200 nM))
C=CC(=O)N1CC(CCn2c(=O)ccc3cnc(Nc4cccc(C(=O)N5CCCCC5)c4)nc32)C1 [Example 64]	E (E represents a pKi value of 7 or below (Ki of 100 nM or above))	E (E represents a pKi value of 7 or below (Ki of 100 nM or above))	E (E represents a pKi value of 7 or below (Ki of 100 nM or above))	B (B represents pKi value between 9 and 10 (Ki between 1 nM and 0.1 nM))	A (A represents a value of 3 or above)	C (C represents a pIC50 value between 6 and 6.7 (IC50 between 1 μM and 200 nM))
C=CC(=O)N1CC(CCn2c(=O)ccc3cnc(Nc4cccc(C(=O)N5CCOCC5)c4)nc32)C1 [Example 65]	E (E represents a pKi value of 7 or below (Ki of 100 nM or above))	E (E represents a pKi value of 7 or below (Ki of 100 nM or above))	E (E represents a pKi value of 7 or below (Ki of 100 nM or above))	B (B represents pKi value between 9 and 10 (Ki between 1 nM and 0.1 nM))	A (A represents a value of 3 or above)	C (C represents a pIC50 value between 6 and 6.7 (IC50 between 1 μM and 200 nM))
C=CC(=O)N1CC(CCn2c(=O)ccc3cnc(Nc4cccc(N5CCCCC5)c4)nc32)C1 [Example 68]	E (E represents a pKi value of 7 or below (Ki of 100 nM or above))	E (E represents a pKi value of 7 or below (Ki of 100 nM or above))	E (E represents a pKi value of 7 or below (Ki of 100 nM or above))	B (B represents pKi value between 9 and 10 (Ki between 1 nM and 0.1 nM))	A (A represents a value of 3 or above)	C (C represents a pIC50 value between 6 and 6.7 (IC50 between 1 μM and 200 nM))
C=CC(=O)N1CC(CCn2c(=O)ccc3cnc(Nc4ccc(-n5ccnc5)cc4)nc32)C1 [Example 73]	E (E represents a pKi value of 7 or below (Ki of 100 nM or above))	E (E represents a pKi value of 7 or below (Ki of 100 nM or above))	E (E represents a pKi value of 7 or below (Ki of 100 nM or above))	C (C represents a pKi value between 8 and 9 (Ki between 10 nM and 1 nM))	B (B represents a value of 2.5 to 3)	C (C represents a pIC50 value between 6 and 6.7 (IC50 between 1 μM and 200 nM))
